Laboratory results published in PubChem BioAssay (NCI).
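Briefly, cells in 96-well plates were exposed to five compound concentrations for 48 h, and endpoints were estimated by linear interpolation. GI50 = concentration required for 50% inhibition of growth. Definition used: TGI = concentration required for complete inhibition of growth.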

What was measured:
Assay in all cases: growth of human tumour cells (NCI), 48 h
EKVX NSCLC = system: EKVX NSCLC
HOP-92 NSCLC = system: HOP-92 NSCLC
LOX IMVI melanoma = system: LOX IMVI melanoma
MDA-MB-435 = system: MDA-MB-435
NCI-H460 lung = system: NCI-H460 lung
NCI/ADR-RES ovarian = system: NCI/ADR-RES ovarian
OVCAR-8 ovarian = system: OVCAR-8 ovarian
SK-OV-3 ovarian = system: SK-OV-3 ovarian
SNB-19 CNS = system: SNB-19 CNS
UACC-257 melanoma = system: UACC-257 melanoma

SMILES | TGI (EKVX NSCLC) [µM] | TGI (HOP-92 NSCLC) [µM] | TGI (LOX IMVI melanoma) [µM] | TGI (MDA-MB-435) [µM] | TGI (NCI-H460 lung) [µM] | TGI (NCI/ADR-RES ovarian) [µM] | TGI (OVCAR-8 ovarian) [µM] | TGI (SK-OV-3 ovarian) [µM] | TGI (SNB-19 CNS) [µM] | TGI (UACC-257 melanoma) [µM] | GI50 (EKVX NSCLC) [µM] | GI50 (HOP-92 NSCLC) [µM] | GI50 (LOX IMVI melanoma) [µM] | GI50 (MDA-MB-435) [µM] | GI50 (NCI-H460 lung) [µM] | GI50 (NCI/ADR-RES ovarian) [µM] | GI50 (OVCAR-8 ovarian) [µM] | GI50 (SK-OV-3 ovarian) [µM] | GI50 (SNB-19 CNS) [µM] | GI50 (UACC-257 melanoma) [µM]
CN(C)Cc1nsc(N(C)C)n1 | > 100 | > 100 | > 100 | > 100 | > 100 | > 100 | > 100 | > 100 | > 100 | > 100 |  |  |  |  |  |  |  |  |  | 
O=C(/C=C/c1cccc(Cl)c1)c1ccccc1 | 29.3 | 32.8 | 10.8 | 5.43 | 18 | 49.8 | 11.4 | 30.9 | 25.8 | 29 | 14.8 | 16.3 | 3.06 | 2 | 4.86 | 16.3 | 3.32 | 16.7 | 11.7 | 15.1
O=C(NCCc1nccs1)c1cnc2c(S)cccc2c1 | 38.2 | 40.8 | 92.8 | 53.5 | 11.4 | > 100 | 57.4 | 15 | 33.1 | 15.3 | 3.1 | 19.8 | 2.35 | 3.85 | 0.685 | 2.97 | 4.95 | 3.56 | 3.41 | 3.77
COc1cc2c(cc1OCCCN1CCN(CCCOc3cc4c(cc3OC)C(=O)N3C[C@H](F)C[C@H]3C=N4)CC1)N=C[C@@H]1C[C@@H](F)CN1C2=O | 16.3 | 14.6 | 0.145 | 0.288 |  | 47.3 | 16.2 | > 100 | > 41.6 | 0.363 | 0.273 | 0.064 | 0.0176 | 0.105 | < 0.01 | 9.18 | 0.134 | 0.07 | 0.758 | 0.127
O=C(O)CC(CC(=O)O)n1cccc1 | > 100 | > 100 | > 100 | > 100 | > 100 | > 100 | > 100 | > 100 | > 100 | > 100 |  |  |  |  |  |  |  |  |  | 
Nc1ncnc2c1ncn2C1OC(F)(COS(N)(=O)=O)C(O)C1O (centres undefined) | > 100 | > 100 | > 100 | > 100 | > 100 | > 100 | > 100 | > 100 | > 100 | > 100 | > 100 | 36.3 | > 100 | > 100 | > 100 | > 100 | > 100 | > 100 | > 100 | > 100
CCOC(=O)c1c(C)n(Cc2ccc(Cl)cc2Cl)c2c1cc(O)c1[nH]c(Cc3ccccc3)nc12 | 22.3 | 4.16 | 3.66 | 24.7 | 6.65 | 17.3 | 11 | 32 | 23.1 | 39 | 9.49 | 1.77 | 1.89 | 5.86 | 2.71 | 4.79 | 3.19 | 16.3 | 5.54 | 19.3
N#C/C(=C\c1ccccn1)c1nc2ccccc2o1 | > 100 | 20.7 | 38.1 | > 100 | > 100 | > 100 | > 100 | > 100 | 40 | > 100 | 24.2 | 0.0586 | 17 | 34.6 | 31.7 | 33.4 | 36.2 | 45.9 | 17 | 35.8
CC12CC(Br)(Br)C(=O)C3C1CCCC32 | 19.1 | 6.19 | 7.67 | 8.78 | 31.7 | 6.8 | 12.7 | 30.8 | 28.8 | 22.2 |  |  |  |  |  |  |  |  |  | 
